Legend:
Experiment in all cases: Cell growth assay
Type in all cases: cell-based
A2780 = conditions: Homo sapiens, 72 h; A2780, RAF WT, RAS WT, 3-day; read-out: gIC50
Procedure, shortened: (§1)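 72 h growth assay, CellTiter-Glo luminescence, t = 0 reference read included; endpoint gIC50.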

ACHN = conditions: Homo sapiens, 72 h, RAF WT, RAS WT, 3-day, read-out: gIC50
Procedure, shortened: as §1

CAL-27 = conditions: Homo sapiens, 72 h; CAL-27, RAF WT, RAS WT, 3-day; read-out: gIC50
Procedure, shortened: as §1

Calu-6 = conditions: Homo sapiens, 72 h; Calu-6, RAF WT, KRAS(Q61K), 3-day; read-out: gIC50
Procedure, shortened: as §1

Colo704 = conditions: Homo sapiens, COLO 704, 72 h; Colo704, RAF WT, RAS WT, 3-day; read-out: gIC50
Procedure, shortened: as §1

DLD-1 = conditions: Homo sapiens, 72 h; DLD-1, RAF WT, KRAS(G13D), 3-day; read-out: gIC50
Procedure, shortened: as §1

EKVX = conditions: Homo sapiens, 72 h, RAF WT, RAS WT, 3-day, read-out: gIC50
Procedure, shortened: as §1

HOS = conditions: Homo sapiens, 72 h, RAF WT, RAS WT, 3-day, read-out: gIC50
Procedure, shortened: as §1

IGROV1 = conditions: Homo sapiens, IGROV-1, 72 h; IGROV1, RAF WT, RAS WT, 3-day; read-out: gIC50
Procedure, shortened: as §1

JM1 = conditions: Homo sapiens, 72 h; JM1, RAF WT, RAS WT, 3-day; read-out: gIC50
Procedure, shortened: as §1

LS1034 = conditions: Homo sapiens, LS-1034, 72 h; LS1034, RAF WT, KRAS(A146T), 3-day; read-out: gIC50
Procedure, shortened: as §1

MALME-3M = conditions: Homo sapiens, 72 h, BRAF(V600E), RAS WT, 3-day, read-out: gIC50
Procedure, shortened: as §1

MC-IXC = conditions: Homo sapiens, 72 h, RAF WT, RAS WT, 3-day, read-out: gIC50
Procedure, shortened: as §1

MCF-7 = conditions: Homo sapiens, MCF7, 72 h; MCF-7, RAF WT, RAS WT, 3-day; read-out: gIC50
Procedure, shortened: as §1

Molt-4 = conditions: Homo sapiens, 72 h; Molt-4, RAF WT, RAS WT, 3-day; read-out: gIC50
Procedure, shortened: as §1

NCI-H146 = conditions: Homo sapiens, 72 h; NCI-H146, RAF WT, RAS WT, 3-day; read-out: gIC50
Procedure, shortened: as §1

NCI-H1792 = conditions: Homo sapiens, 72 h; NCI-H1792, RAF WT, RAS WT, 3-day; read-out: gIC50
Procedure, shortened: as §1

NCI-H292 = conditions: Homo sapiens, 72 h; NCI-H292, RAF WT, RAS WT, 3-day; read-out: gIC50
Procedure, shortened: as §1

NCI-H358 = conditions: Homo sapiens, 72 h; NCI-H358, RAF WT, RAS WT, 3-day; read-out: gIC50
Procedure, shortened: as §1

OE-33 = conditions: Homo sapiens, OE33, 72 h; OE-33, RAF WT, RAS WT, 3-day; read-out: gIC50
Procedure, shortened: as §1

RL = conditions: Homo sapiens, 72 h, RAF WT, RAS WT, 3-day, read-out: gIC50
Procedure, shortened: as §1

RPMI-8226 = conditions: Homo sapiens, 72 h; RPMI-8226, RAF WT, RAS WT, 3-day; read-out: gIC50
Procedure, shortened: as §1

SCC-12 = conditions: Homo sapiens, SCC12, 72 h; SCC-12, RAF WT, RAS WT, 3-day; read-out: gIC50
Procedure, shortened: as §1

SJRH30 = conditions: Homo sapiens, 72 h; SJRH30, RAF WT, RAS WT, 3-day; read-out: gIC50
Procedure, shortened: as §1

SK-MES-1 = conditions: Homo sapiens, 72 h; SK-MES-1, RAF WT, RAS WT, 3-day; read-out: gIC50
Procedure, shortened: as §1

SK-UT-1 = conditions: Homo sapiens, 72 h; SK-UT-1, RAF WT, RAS WT, 3-day; read-out: gIC50
Procedure, shortened: as §1

SNU-1 = conditions: Homo sapiens, SNU1, 72 h; SNU-1, RAF WT, RAS WT, 3-day; read-out: gIC50
Procedure, shortened: as §1

SW480 = conditions: Homo sapiens, 72 h; SW480, RAF WT, KRAS(G12V), 3-day; read-out: gIC50
Procedure, shortened: as §1

SW872 = conditions: Homo sapiens, 72 h; SW872, BRAF(V600E), RAS WT, 3-day; read-out: gIC50
Procedure, shortened: as §1

U2OS = conditions: Homo sapiens, 72 h, RAF WT, RAS WT, 3-day, read-out: gIC50
Procedure, shortened: as §1

UACC-257 = conditions: Homo sapiens, 72 h; UACC-257, BRAF(V600E), RAS WT, 3-day; read-out: gIC50
Procedure, shortened: as §1

UMUC-3 = conditions: Homo sapiens, UMUC3, 72 h; UMUC-3, RAF WT, KRAS(G12C), 3-day; read-out: gIC50
Procedure, shortened: as §1

**Q.** With `CC(C)(C)c1nc(-c2cccc(NS(=O)(=O)c3c(F)cccc3F)c2F)c(-c2ccnc(N)n2)s1` [dabrafenib] as the compound, how does the IC50 (A2780) read?
**A.** > 10 µM

**Q.** What about the IC50 (ACHN) of the same compound?
**A.** 0.294 µM

**Q.** What about the IC50 (CAL-27) of the same compound?
**A.** > 10 µM

**Q.** What about the IC50 (Calu-6) of the same compound?
**A.** > 10 µM

**Q.** And the IC50 (Colo704)?
**A.** > 10 µM

**Q.** What about the IC50 (DLD-1) of the same compound?
**A.** > 10 µM

**Q.** What about the IC50 (EKVX) of the same compound?
**A.** > 10 µM

**Q.** And the IC50 (HOS)?
**A.** > 10 µM

**Q.** And the IC50 (IGROV1)?
**A.** > 10 µM

**Q.** What about the IC50 (JM1) of the same compound?
**A.** > 10 µM

**Q.** What about the IC50 (LS1034) of the same compound?
**A.** > 10 µM

**Q.** What about the IC50 (MALME-3M) of the same compound?
**A.** 0.001 µM

**Q.** And the IC50 (MC-IXC)?
**A.** > 10 µM

**Q.** What about the IC50 (MCF-7) of the same compound?
**A.** > 10 µM

**Q.** What about the IC50 (Molt-4) of the same compound?
**A.** > 10 µM

**Q.** And the IC50 (NCI-H146)?
**A.** > 10 µM

**Q.** What about the IC50 (NCI-H1792) of the same compound?
**A.** > 10 µM

**Q.** And the IC50 (NCI-H292)?
**A.** > 10 µM

**Q.** And the IC50 (NCI-H358)?
**A.** > 10 µM

**Q.** What about the IC50 (OE-33) of the same compound?
**A.** > 10 µM

**Q.** And the IC50 (RL)?
**A.** > 10 µM

**Q.** And the IC50 (RPMI-8226)?
**A.** 0.263 µM

**Q.** What about the IC50 (SCC-12) of the same compound?
**A.** > 10 µM

**Q.** And the IC50 (SJRH30)?
**A.** > 10 µM

**Q.** What about the IC50 (SK-MES-1) of the same compound?
**A.** 0.329 µM

**Q.** And the IC50 (SK-UT-1)?
**A.** > 10 µM

**Q.** What about the IC50 (SNU-1) of the same compound?
**A.** 1.5 µM

**Q.** What about the IC50 (SW480) of the same compound?
**A.** > 10 µM

**Q.** And the IC50 (SW872)?
**A.** 0.377 µM

**Q.** What about the IC50 (U2OS) of the same compound?
**A.** > 10 µM

**Q.** What about the IC50 (UACC-257) of the same compound?
**A.** 0.006 µM

**Q.** And the IC50 (UMUC-3)?
**A.** > 10 µM

From article PMC3701070 (PLoS ONE, 2013)
